# Results taken from ChEMBL document CHEMBL1201862, “PubChem BioAssay data set” (2004).
# Calls of active or inactive are those of the source.
# Legend:
# Vero = assay: viability loss in Vero cells – cell-based, plate reader, cherry-pick samples, cytotoxicity control, dose response (AID 687020); format: functional; conditions: Chlorocebus sabaeus
# cells [1] = format: functional, cell-based
# [2] = target: T1, Trace amine-associated receptor 1 (Homo sapiens, UniProt Q96RJ0); assay: Counterscreen for agonists of the human trace amine associated receptor 1 (hTAAR1): Fluorescence-based cell-based high throughput dose response assay to identify hTAAR1 agonist that also desensitize TAAR1 receptor response.; format: functional
# T1 sequence (Q96RJ0 whole entry): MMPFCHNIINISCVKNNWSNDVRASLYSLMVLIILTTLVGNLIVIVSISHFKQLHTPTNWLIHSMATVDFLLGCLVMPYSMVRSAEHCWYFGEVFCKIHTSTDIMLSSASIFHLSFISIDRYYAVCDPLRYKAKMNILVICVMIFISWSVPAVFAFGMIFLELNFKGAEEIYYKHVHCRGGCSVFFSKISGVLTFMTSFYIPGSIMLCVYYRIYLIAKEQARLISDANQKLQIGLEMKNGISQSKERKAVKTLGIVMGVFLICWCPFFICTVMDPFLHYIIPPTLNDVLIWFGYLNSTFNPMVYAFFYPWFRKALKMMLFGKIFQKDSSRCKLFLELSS
# cells [3] = format: functional, cell-based; remark: listed apart in the source
# [4] = target: T1, Trace amine-associated receptor 1; assay: Fluorescence-based cell-based high throughput dose response assay to identify agonists of the human trace amine associated receptor 1 (TAAR1).; format: functional
# [5] = target: T2, Sentrin-specific protease 1 (Homo sapiens, UniProt Q9P0U3); assay: Dose response confirmation of small molecule inhibitors of the catalytic domain of the SUMO protease, SENP1 in a FRET assay.; format: functional; conditions: read-out: IC50_Mean
# T2 sequence (Q9P0U3 whole entry): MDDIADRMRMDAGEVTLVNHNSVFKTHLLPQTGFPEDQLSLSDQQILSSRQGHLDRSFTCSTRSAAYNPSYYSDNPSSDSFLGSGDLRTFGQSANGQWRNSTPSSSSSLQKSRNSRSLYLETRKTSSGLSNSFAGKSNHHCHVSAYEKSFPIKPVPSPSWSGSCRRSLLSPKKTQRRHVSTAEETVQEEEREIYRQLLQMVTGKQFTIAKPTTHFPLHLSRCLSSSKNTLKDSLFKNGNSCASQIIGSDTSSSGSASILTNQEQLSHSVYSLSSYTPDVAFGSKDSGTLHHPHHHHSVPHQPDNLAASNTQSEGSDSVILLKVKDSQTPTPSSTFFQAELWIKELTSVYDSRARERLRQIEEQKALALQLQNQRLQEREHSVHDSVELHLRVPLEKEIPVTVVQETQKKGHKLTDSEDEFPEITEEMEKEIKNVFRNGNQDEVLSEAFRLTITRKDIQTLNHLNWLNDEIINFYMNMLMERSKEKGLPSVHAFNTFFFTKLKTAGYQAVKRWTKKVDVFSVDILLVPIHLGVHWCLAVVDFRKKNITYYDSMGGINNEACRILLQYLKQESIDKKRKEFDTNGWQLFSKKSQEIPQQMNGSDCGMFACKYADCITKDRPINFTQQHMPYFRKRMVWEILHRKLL
# [6] = target: T2, Sentrin-specific protease 1; assay: SENP1 catalytic domain blockers, concentration series – biochemical, kinetic FRET, dose response (AID 651697); format: functional; conditions: read-out: IC50_Mean
# Beta-galactosidase = Beta-galactosidase (Escherichia coli, UniProt Q8VNN2); assay: Dose response counterscreen for EBI2 assay utilizing the enzyme, b-galactosidase.; format: functional
# [7] = target: T3, Small ubiquitin-related modifier 1 (Homo sapiens, UniProt P63165); assay: SUMO1 protein-protein binding blockers, potency – biochemical, FRET, dose response (AID 624383); format: functional; conditions: read-out: IC50_Mean
# [8] = target: T3, Small ubiquitin-related modifier 1; assay: SUMO1 protein interaction blockers, potency – biochemical, fluorescence polarization, uHTS hits, dose response (AID 624382); format: functional; conditions: read-out: IC50_Mean
# [9] = T. cruzi growth inhibition in host cells, dose response, cell-based, plate reader, dry powder, set 2 (AID 652275); format: functional
# [10] = viability of uninfected HEp-2 cells – cell-based, HTS, cytotoxicity control for RSV inhibitor project, dose response (AID 2410); format: functional; conditions: human respiratory syncytial virus
# [11] = target: Endoplasmic reticulum aminopeptidase 1 (Homo sapiens, UniProt Q9NZ08); assay: inhibition of human ERAP1 enzyme activity – biochemical, cherry-pick, set 2, plate reader, dose response (AID 743314)
# [12] = target: T4, Histone-lysine N-methyltransferase NSD2 (Homo sapiens, UniProt O96028); format: biochemical
# T4 sequence (O96028 whole entry): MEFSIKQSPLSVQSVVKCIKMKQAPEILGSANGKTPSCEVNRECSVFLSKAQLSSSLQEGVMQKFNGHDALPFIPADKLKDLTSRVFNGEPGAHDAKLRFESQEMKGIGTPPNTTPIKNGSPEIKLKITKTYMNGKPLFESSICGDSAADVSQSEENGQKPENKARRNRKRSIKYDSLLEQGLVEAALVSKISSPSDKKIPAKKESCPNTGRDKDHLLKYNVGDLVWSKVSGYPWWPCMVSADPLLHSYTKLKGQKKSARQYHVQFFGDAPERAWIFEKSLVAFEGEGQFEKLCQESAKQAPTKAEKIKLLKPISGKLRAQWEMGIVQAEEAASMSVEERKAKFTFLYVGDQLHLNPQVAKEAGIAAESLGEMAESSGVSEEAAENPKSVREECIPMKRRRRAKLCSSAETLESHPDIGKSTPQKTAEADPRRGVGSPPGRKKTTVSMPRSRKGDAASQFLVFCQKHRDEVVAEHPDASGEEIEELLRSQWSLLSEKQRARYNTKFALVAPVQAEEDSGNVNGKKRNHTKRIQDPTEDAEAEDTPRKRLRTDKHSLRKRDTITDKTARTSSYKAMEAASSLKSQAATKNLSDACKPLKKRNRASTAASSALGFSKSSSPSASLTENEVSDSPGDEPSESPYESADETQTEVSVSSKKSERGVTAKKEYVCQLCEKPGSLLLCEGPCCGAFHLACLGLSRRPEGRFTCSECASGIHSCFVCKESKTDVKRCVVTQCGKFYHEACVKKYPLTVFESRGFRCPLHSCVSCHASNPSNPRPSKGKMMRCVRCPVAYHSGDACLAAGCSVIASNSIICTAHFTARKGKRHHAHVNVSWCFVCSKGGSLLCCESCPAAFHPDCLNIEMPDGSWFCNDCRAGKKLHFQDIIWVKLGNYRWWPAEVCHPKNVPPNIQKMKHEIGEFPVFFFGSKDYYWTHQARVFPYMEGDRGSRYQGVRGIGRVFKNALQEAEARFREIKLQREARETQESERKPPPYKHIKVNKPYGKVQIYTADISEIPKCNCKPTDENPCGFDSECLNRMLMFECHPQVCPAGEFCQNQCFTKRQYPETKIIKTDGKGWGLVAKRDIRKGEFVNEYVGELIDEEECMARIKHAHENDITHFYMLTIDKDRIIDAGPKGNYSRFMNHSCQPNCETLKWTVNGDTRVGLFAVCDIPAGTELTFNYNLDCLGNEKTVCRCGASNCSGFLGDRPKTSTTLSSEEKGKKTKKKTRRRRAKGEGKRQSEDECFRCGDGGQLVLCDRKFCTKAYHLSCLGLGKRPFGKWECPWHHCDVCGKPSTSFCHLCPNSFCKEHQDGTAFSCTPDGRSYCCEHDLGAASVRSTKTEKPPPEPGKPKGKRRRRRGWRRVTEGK
# [13] = target: T5, Zinc finger protein mex-5 (Caenorhabditis elegans, UniProt Q9XUB2); assay: potency of MEX-5 RNA-binding blockers – biochemical, C. elegans, fluorescence polarization, dose response (AID 1960)
# T5 sequence (Q9XUB2 whole entry): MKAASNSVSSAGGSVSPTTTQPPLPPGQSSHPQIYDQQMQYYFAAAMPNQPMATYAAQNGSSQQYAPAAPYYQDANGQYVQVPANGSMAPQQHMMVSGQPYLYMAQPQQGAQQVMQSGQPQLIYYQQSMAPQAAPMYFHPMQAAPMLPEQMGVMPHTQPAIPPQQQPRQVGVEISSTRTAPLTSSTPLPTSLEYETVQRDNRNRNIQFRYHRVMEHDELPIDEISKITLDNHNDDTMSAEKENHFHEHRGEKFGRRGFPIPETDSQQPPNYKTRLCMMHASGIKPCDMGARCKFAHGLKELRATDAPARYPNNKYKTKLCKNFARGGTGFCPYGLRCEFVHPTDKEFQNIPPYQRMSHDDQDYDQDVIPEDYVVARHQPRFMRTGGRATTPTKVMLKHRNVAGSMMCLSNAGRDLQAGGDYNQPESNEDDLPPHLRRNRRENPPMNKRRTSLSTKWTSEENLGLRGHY
# [14] = target: T6, RNA-binding protein pos-1 (Caenorhabditis elegans, UniProt G5EF15); assay: disruptors of C. elegans POS-1 RNA interaction – biochemical, fluorescence polarization, dose response (AID 1964);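 also: purified POS-1 fused to maltose binding protein made in E. coli; potency of compounds blocking POS-1 binding to fluorescent RNA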
# T6 sequence (G5EF15 whole entry): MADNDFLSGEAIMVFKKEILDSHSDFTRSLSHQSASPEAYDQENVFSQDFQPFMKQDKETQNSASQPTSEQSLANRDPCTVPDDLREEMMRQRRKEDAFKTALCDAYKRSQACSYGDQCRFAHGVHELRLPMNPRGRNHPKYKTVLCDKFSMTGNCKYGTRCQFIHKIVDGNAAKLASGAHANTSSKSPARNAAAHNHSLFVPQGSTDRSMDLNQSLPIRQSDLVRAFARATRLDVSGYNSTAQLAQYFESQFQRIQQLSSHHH
# Large T antigen = Large T antigen (Simian virus 40, UniProt P03070); format: functional, Betapolyomavirus macacae;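 also: Confirmatory-stage PubChem screen for compounds that inhibit SV40 T antigen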
# [15] = target: DNA dC->dU-editing enzyme APOBEC-3A (Homo sapiens, UniProt P31941); assay: Dose Response confirmation of small molecule APOBEC3A DNA Deaminase Inhibitors via a fluorescence-based single-stranded DNA deaminase assay. [Related pubchem assays (depositor defined):AID493011, AID493024]; format: functional
# Caspase-6 = target: T7, Caspase-6 (Homo sapiens, UniProt P55212); assay: inhibition of CASP6 peptide cleavage – biochemical, VEID-R110 fluorescence, cherry-pick, dose response (AID 720632)
# T7 sequence (P55212 whole entry): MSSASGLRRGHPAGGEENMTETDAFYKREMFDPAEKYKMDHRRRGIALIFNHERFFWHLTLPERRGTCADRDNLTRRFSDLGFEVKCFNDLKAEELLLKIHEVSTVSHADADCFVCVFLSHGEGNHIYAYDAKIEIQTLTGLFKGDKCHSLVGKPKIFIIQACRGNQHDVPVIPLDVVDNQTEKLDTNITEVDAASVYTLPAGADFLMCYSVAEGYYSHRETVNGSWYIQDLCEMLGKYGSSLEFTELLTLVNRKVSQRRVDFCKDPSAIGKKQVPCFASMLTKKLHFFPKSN
# [16] = target: DNA dC->dU-editing enzyme APOBEC-3G (Homo sapiens, UniProt Q9HC16); format: functional;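 also: Dose-response counterscreen measuring inhibition of APOBEC3G DNA deaminase activity, run while confirming APOBEC3A inhibitors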
# Chain of DNA dC->dU-editing enzyme APOBEC-3G (Q9HC16 whole entry): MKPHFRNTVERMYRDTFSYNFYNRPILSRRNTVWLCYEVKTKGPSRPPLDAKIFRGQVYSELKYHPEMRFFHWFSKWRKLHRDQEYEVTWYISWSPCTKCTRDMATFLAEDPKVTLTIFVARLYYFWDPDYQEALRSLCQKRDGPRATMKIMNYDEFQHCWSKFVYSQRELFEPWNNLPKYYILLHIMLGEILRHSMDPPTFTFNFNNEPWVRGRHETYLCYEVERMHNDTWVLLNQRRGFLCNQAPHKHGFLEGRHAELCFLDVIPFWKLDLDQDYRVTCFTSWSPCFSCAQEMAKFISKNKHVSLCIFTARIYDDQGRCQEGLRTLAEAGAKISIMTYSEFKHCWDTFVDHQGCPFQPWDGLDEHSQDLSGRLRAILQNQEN
# T3 sequence (P63165 whole entry): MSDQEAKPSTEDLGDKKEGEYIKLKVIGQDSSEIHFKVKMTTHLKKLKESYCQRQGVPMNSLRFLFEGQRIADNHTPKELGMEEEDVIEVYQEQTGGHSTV
# Chain of Beta-galactosidase (Q8VNN2 whole entry): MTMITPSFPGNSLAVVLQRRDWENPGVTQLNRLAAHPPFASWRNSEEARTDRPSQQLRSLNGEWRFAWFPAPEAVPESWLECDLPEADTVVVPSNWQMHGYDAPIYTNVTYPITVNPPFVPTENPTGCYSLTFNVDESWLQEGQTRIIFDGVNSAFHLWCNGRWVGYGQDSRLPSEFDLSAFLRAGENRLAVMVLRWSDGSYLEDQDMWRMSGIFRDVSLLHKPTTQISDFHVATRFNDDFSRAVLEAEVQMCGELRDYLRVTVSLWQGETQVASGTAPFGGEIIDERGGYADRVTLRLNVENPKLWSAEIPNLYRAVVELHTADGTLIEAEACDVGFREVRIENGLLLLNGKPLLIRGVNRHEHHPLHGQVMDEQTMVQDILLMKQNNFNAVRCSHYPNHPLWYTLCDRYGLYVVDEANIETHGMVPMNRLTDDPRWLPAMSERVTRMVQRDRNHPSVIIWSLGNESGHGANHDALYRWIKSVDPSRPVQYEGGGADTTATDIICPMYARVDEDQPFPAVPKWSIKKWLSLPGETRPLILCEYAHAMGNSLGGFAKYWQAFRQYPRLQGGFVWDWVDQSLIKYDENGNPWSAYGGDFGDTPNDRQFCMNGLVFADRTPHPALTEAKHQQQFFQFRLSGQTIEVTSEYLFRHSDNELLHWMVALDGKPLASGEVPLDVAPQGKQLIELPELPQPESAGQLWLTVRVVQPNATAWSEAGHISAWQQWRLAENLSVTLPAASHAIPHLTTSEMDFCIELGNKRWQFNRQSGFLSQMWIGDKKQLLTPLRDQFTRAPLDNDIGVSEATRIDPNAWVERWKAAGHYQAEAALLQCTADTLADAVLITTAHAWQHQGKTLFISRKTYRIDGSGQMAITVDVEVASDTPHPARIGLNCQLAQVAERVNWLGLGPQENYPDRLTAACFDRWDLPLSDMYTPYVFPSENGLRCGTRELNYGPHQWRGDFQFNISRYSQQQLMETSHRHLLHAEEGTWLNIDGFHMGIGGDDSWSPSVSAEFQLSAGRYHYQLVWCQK
# Chain of Endoplasmic reticulum aminopeptidase 1 (Q9NZ08 whole entry): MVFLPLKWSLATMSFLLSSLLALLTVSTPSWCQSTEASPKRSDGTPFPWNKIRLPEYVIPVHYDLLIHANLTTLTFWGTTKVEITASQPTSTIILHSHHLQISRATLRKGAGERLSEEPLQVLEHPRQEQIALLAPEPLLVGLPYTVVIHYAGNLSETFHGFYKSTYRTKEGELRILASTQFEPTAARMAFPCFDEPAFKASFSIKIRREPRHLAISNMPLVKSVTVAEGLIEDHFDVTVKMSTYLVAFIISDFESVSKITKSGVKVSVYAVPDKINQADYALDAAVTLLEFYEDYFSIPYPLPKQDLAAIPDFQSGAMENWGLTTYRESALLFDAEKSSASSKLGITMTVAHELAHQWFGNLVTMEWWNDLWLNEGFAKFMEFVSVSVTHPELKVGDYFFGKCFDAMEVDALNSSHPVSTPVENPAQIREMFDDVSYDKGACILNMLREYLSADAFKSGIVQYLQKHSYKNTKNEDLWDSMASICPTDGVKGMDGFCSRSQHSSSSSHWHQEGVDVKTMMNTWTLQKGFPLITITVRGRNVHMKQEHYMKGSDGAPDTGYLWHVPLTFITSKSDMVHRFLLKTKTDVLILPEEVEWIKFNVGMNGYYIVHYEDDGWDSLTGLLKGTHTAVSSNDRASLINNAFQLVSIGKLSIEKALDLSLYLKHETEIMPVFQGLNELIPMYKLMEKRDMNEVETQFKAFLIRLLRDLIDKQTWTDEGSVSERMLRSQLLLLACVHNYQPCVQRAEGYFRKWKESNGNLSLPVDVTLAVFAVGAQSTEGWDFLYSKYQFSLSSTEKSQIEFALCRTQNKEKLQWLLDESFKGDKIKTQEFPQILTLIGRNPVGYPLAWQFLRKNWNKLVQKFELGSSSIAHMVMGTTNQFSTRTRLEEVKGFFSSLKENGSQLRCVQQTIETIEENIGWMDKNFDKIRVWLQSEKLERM
# Chain of DNA dC->dU-editing enzyme APOBEC-3A (P31941 whole entry): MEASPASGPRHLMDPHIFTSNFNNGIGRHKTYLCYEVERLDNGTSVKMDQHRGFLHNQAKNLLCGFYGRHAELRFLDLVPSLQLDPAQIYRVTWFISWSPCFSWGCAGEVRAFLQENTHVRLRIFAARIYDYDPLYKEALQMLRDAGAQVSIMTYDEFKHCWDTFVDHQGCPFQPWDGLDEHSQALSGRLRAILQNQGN
# Chain of Large T antigen (P03070 whole entry): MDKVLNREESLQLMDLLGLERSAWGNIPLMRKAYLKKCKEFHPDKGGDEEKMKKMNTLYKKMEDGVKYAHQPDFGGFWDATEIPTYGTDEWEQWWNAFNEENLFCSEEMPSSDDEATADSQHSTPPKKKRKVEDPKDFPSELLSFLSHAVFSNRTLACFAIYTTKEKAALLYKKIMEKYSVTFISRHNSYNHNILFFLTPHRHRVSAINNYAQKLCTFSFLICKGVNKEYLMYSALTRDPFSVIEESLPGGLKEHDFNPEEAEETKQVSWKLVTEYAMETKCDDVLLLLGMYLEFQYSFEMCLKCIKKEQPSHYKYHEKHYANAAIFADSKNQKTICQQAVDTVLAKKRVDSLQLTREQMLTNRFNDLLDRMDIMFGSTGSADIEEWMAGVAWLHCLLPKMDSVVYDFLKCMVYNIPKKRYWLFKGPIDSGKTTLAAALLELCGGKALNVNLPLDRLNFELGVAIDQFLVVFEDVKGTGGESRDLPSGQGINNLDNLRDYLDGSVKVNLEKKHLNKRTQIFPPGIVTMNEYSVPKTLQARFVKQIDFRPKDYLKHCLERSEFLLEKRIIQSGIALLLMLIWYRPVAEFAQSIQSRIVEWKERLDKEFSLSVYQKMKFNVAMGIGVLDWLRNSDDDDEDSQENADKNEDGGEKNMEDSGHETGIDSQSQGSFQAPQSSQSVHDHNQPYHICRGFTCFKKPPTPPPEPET
smiles,measurement,setting,value
COc1ccc(C(CNC(=O)COc2cc(C)ccc2Cl)N2CCCCC2)cc1 (stereo not given),AC50,Vero,17.6 µM (active)
O=C(O)C1C2CCC(C2)C1C(=O)NCCc1ccc(F)cc1 (stereo not given),IC50,cells [1],> 29.9 µM (inactive)
same,IC50,[2],> 29.9 µM (inactive)
same,EC50,cells [3],> 29.9 µM (inactive)
same,EC50,[4],14.8 µM (inactive)
Nc1ccc2c(c1)C(=O)N(CCCC(=O)O)C2=O,IC50,[5],19 µM (active)
same,IC50,[6],13.1 µM (active)
COCCNc1nc(Nc2ccccc2Cl)c2sccc2n1,AC50,Vero,6.94 µM (active)
COc1cccc(C(=O)N[C@@H](Cc2cccnc2)C(=O)N2CCC[C@H]2C(=O)NCCc2ccccc2Cl)c1,IC50,cells [1],> 29.9 µM (inactive)
same,IC50,[2],4.58 µM (active)
same,EC50,cells [3],> 29.9 µM (inactive)
same,EC50,[4],2.18 µM (active)
O=C(c1cc2ccccc2o1)N1CCN(S(=O)(=O)c2ccc(Cl)s2)CC1,IC50,Beta-galactosidase,> 80 µM (inactive)
CC(=O)c1ccc(OCCCC(=O)OCC(=O)Nc2ccc3[nH]c(O)nc3c2)cc1,IC50,[7],16.9 µM (active)
same,IC50,[8],> 66.6 µM (inactive)
C#CCNC(=O)C[C@@H]1C[C@@]2(C(=O)OC)CCCCC=C2N(Cc2cccc3ccccc23)C1=O,AC50,Vero,36.6 µM (active)
Cc1cccc(-c2ccc([C@H]3[C@H](CO)N4CCCCN(Cc5cncnc5)C[C@@H]34)cc2)c1,AC50,[9],0.198 µM (active)
Cc1c(-c2ccccc2)c(=O)oc2cc(O)ccc12,CC50,[10],42.4 µM (active)
same,AC50,[11],4.79 µM (active)
CC(C)N1C[C@@H](CNCc2ccc(Oc3ccccc3)cc2)Oc2c(NC(=O)c3ccncc3)cccc2C1=O,AC50,[9],0.00666 µM (active)
O=C(CSc1nnc(-c2ccc(O)cc2)n1Cc1ccccc1)NNC(=O)c1ccc(Br)cc1,IC50,Beta-galactosidase,> 80 µM (inactive)
O=C(Nc1ccccc1)Nc1ccno1,IC50,cells [1],> 29.9 µM (inactive)
same,IC50,[2],4.63 µM (active)
same,EC50,cells [3],> 29.9 µM (inactive)
same,EC50,[4],4.65 µM (active)
C[C@H]1CN([C@@H](C)CO)C(=O)c2cccc(NC(=O)c3ccncc3)c2O[C@@H]1CN(C)Cc1ccc(F)c(Cl)c1,AC50,[9],0.00198 µM (active)
Nc1ccc(Nc2ccccc2)c(S(=O)(=O)O)c1,AC50,[12],8.41 µM (active)
same,IC50,[7],12.8 µM (active)
same,EC50,[13],34 µM (active)
same,EC50,[14],108 µM (active)
same,IC50,[8],> 66.6 µM (inactive)
same,IC50,Large T antigen,7.15 µM (active)
same,IC50,[15],16.5 µM (active)
same,AC50,Caspase-6,1.22 µM (active)
same,IC50,[16],34.1 µM (active)
